From PMC10298275, “Antiproliferative Activity and Impact on Human Gut Microbiota of New O-Alkyl Derivatives of Naringenin and Their Oximes” (International Journal of Molecular Sciences, 2023)
Values after ≈ are worked out from the molar mass of the structure shown. Where two headings read alike, the source gives them in different places.

How the values were obtained:
HT-29 cells [1] = test: RealTime-Glo Annexin V Apoptosis and Necrosis Assay; assay type: cell-based, human; details: HT-29, during 12 h incubation, applied concentrations 10-100 µg/mL
Experimental: The process of apoptosis was determined using the RealTime-Glo Annexin V Apoptosis and Necrosis Assay (Promega) according to the manufacturer’s protocol. Briefly, 1 × 10^4 HT-29 cells were seeded into a single well of a 96-well plate. After overnight incubation, the cells were treated with 10, 25, 50 and 100 µg/mL of the investigated compounds and detection reagent for 24 h. As a negative control, untreated cells were used. The luminescence, fluorescence and OD525 signals were detected at each hour of the first 12 h of incubation. The end measurement was performed at the 24th hour of the experiment. All samples were prepared in triplicate, and then their means were calculated.

HT-29 cells [2] = test: MTT assay, cell viability; assay type: cell-based, human; details: HT-29, highest concentration 100 µg/mL, 24 h
Experimental: (§1) The HT-29 cells (ATCC, Manassas, VA, USA) were cultured within α-MEM (IIET PAS, Wrocław, Poland) supplemented with 10% fetal bovine serum (Sigma, St. Louis, MO, USA), antimycotic (100 μg/mL penicillin, 100 μg/mL streptomycin and 0.25 μg/mL amphotericin) (Sigma) and 2 mM glutamine (Sigma). The 3T3-L1 cells (ATCC, Manassas, VA, USA) were cultivated using DMEM high-glucose medium (IIET PAS, Wrocław, Poland) supplemented as above. Both cell lines were cultured at 37 °C in an atmosphere of 5% CO2.
First, 1 × 10^4 HT-29 cells or 5 × 10^3 3T3-L1 cells were seeded into a 96-well plate and incubated for one night. Then, cells were treated with different concentrations of the investigated compounds within 24 h. Afterwards, the medium was replaced with a fresh medium containing 0.5 mg/mL of 3-(4,5-dimethylthiazol-2-yl)-2,5-diphenyl-2H-tetrazolium bromide (MTT, Sigma) and incubated for 2 h at 37 °C. After removing the medium, the formazan salts were dissolved in dimethyl sulfoxide (DMSO, Sigma), and the absorbance of the solution was measured at 560 nm using a plate reader.

[3] = system: caspase 3/7 in HT-29 cells; test: Caspase-Glo 3/7 Assay; assay type: cell-based, human; details: HT-29, 50 µg/mL, measured at 6, 12, 24 and 48 h
Experimental: The activity of two effector caspases 3 and 7 was analyzed using the Caspase-Glo 3/7 Assay (Promega) according to the recommendations of the manufacturer. The cells were seeded at a density of 1 × 10^4 per well for the test on a 96-well plate. Then, cells were incubated with A2, B2, A9, B9 and NG at a concentration of 50 µg/mL for 48 h. Half an hour before each measurement of caspase activity, an equal volume of Caspase-Glo 3/7 substrate solution was added to cells. The luminescence signals were detected using a GloMax Discover Microplate Reader at the 6th, 12th, 24th and 48th hours of the experiment. The reactions for each sample were repeated in triplicate and presented as the mean value.

[4] = system: Enterococcus faecalis ATCC 29212; test: MBC assay; assay type: cell-based; details: Enterococcus faecalis, ATCC29212; E. faecalis ATCC 29212; read-out: MBC
Experimental: (§2) The minimum bactericidal concentration (MBC) was tested for all naringenin derivatives. First, 10 µL of medium was taken from the plate, on which the MIC was determined for the MIC value, the value below and the two values above. This volume was transferred to TSA or MC agar. After 18–24 h (depending on strain) incubation at 37 °C, colonies were counted. The concentration of test compounds at which no bacterial growth was observed was defined as the MBC value. Each experiment was repeated 3 times.

Escherichia coli K12 [5] = test: MBC assay; assay type: cell-based; details: E. coli K12
Experimental: as §2

[6] = system: Staphylococcus aureus ATCC 25923; test: MBC assay; assay type: cell-based; details: Staphylococcus aureus, ATCC25923; S. aureus ATCC 25923; read-out: MBC
Experimental: as §2

SRB assay, cytotoxicity [7] = assay type: cell-based, mouse; details: mouse, 3T3-L1 cells; 3T3-L1, SRB, 24 h exposure, three independent repeats; read-out: Cytotoxicity (IC50 ± SD)
Experimental: as §1
(§3) The sulforhodamine B (SRB) assay was performed according to a previously published protocol. Briefly, 1 × 10^4 HT-29 or 5 × 10^3 3T3-L1 cells were seeded into 96-well plates. After attaching to the plate surface, the cells were incubated with 100, 75, 50, 25, 10 or 1 µg/mL of the investigated compounds for 24 h. After this time, proteins were precipitated with trichloroacetic acid and stained with SRB. The absorbance was measured at 560 nm using a GloMax Discover Microplate Reader (Promega, Madison, WI, USA).

[8] = system: Enterococcus faecalis ATCC 29212; test: MIC, microdilution method; assay type: cell-based; details: E. faecalis ATCC 29212, MHB, 24 h, 37 °C, tested 512 to 1 µg/mL
Experimental: (§4) Non-pathogenic reference strains representing the intestinal microbiome were used for the studies: Escherichia coli K12, Staphylococcus aureus ATCC 25923 and Enterococcus faecalis ATCC 29212. All strains were obtained from the collection of the Department of Microbiology at the Medical University of Wrocław.
(§5) The strains were received from the museum (−80 °C) and grown in tryptic soy broth (TSB, OXOID, Basingstoke, UK) under continuous shaking conditions (MaxQTM6000 incubator shaker, Thermo Scientific, Waltham, MA, USA) at 125 rpm at 37 °C. Then, they were moved to the growth media, namely tryptic soy agar (TSA, OXOID, Basingstoke, UK) and MacConkey agar (MC, Millipore, Darmstadt, Germany) for S. aureus or E. faecalis and E. coli, respectively.
(§6) A fresh 18–24 h culture was used for each study. For this purpose, a culture with a density of 1.5 × 10^8 CFU/mL in Mueller–Hinton broth (MHB, OXOID, Basingstoke, UK) was prepared and used for further microdilution studies.
(§7) The antimicrobial activity of the O-alkyl derivatives of naringenin and their oximes was tested in vitro using the microdilution method, showing the minimum inhibitory concentration (MIC), in accordance with the recommendations of the European Antimicrobial Susceptibility Testing Committee EUCAST [44]. MICs were determined in 96-well microdilution plates. The tests were carried out in MHB medium. The O-alkyl derivatives of naringenin and their oximes were tested in the concentration range of 512 to 1 µg/mL in a geometric process in MHB medium. The final concentration of the test strains in each test well was 5 × 10^5 CFU/mL. MICs were read after 18 h (for E. coli and S. aureus) and 24 h (for E. faecalis) incubation at 37 °C.
(§8) A strain growth control (tested strain in medium), background control for tested compounds (naringenin derivatives in MHB), medium control (only pure MHB) and compound solvent control (DMSO at test compound concentration, strain and MHB) were set for each experiment. Each test was set up with three independent experiments, each as three separate replicates.
(§9) The […], OD600, was measured in a plate reader (ASYS UVM340, BIOCHROM Ltd., Cambridge, UK). The background control of the tested compounds and the clean medium were included in the absorbance results.

Escherichia coli K12 [9] = test: MIC, microdilution method; assay type: cell-based; details: E. coli K12, MHB, 18 h, 37 °C, tested 512 to 1 µg/mL
Experimental: as §4, §5, §6, §7, §8, §9

[10] = system: Staphylococcus aureus ATCC 25923; test: MIC, microdilution method; assay type: cell-based; details: S. aureus ATCC 25923, MHB, 18 h, 37 °C, tested 512 to 1 µg/mL
Experimental: as §4, §5, §6, §7, §8, §9

SRB assay, cytotoxicity [11] = assay type: cell-based, human; details: human, HT-29 cells; HT-29, SRB, 24 h exposure, three independent repeats; read-out: Cytotoxicity (IC50 ± SD)
Experimental: as §1, §3

HT-29 cells [12] = test: SRB assay, cytotoxicity; assay type: cell-based, human; details: HT-29, SRB, up to 100 µg/mL
Experimental: as §1, §3

[13] = Escherichia coli, read-out: MBC
[14] = Enterococcus faecalis, ATCC29212, read-out: MIC
[15] = Escherichia coli, read-out: MIC
[16] = Staphylococcus aureus, ATCC25923, read-out: MIC

Row | Compound | MIC [8, 14] | MIC (Escherichia coli K12 [9]) | MIC (Escherichia coli K12 [9]; [15]) | MIC [10, 16] | melting point | MIC [8] | MIC [10] | annexin V luminescence and necrosis fluorescence signals versus untreated cells (HT-29 cells [1]) | effect on colon adenocarcinoma cells (viability, MTT) (HT-29 cells [2]) | caspase 3/7 activation [3] | MBC [4] | MBC (Escherichia coli K12 [5]) | MBC (Escherichia coli K12 [5]; [13]) | MBC [6] | IC50 at 24 h (SRB assay, cytotoxicity [7]) | IC50 at 24 h (SRB assay, cytotoxicity [11]) | effect on the proliferation of the HT-29 cell line (HT-29 cells [12])
1 | O=C1C[C@@H](c2ccc(O)cc2)Oc2cc(O)cc(O)c21 [NG, naringenin] | > 512 µg/mL | 512 µg/mL (≈ 1880 µM) | 512 µg/mL (≈ 1880 µM) | 512 µg/mL (≈ 1880 µM) |  |  |  | both signals were similar to those for untreated cells | weak | neither membrane switching of phosphatidylserine nor caspase activation was observed | > 512 µg/mL | > 512 µg/mL | > 512 µg/mL | > 512 µg/mL | > 100 µg/mL | > 100 µg/mL | 
2 | CCCCCCCCCOc1ccc([C@@H]2CC(=O)c3c(O)cc(OCCCCCCCCC)cc3O2)cc1 [A8, 7,4′-Di-O-nonylnaringenin] | 512 µg/mL (≈ 976 µM) |  | > 512 µg/mL | 512 µg/mL (≈ 976 µM) | 70 to 71 °C | 512 (>512) µg/mL | 512 (>512) µg/mL |  | weak |  | > 512 µg/mL |  | > 512 µg/mL | > 512 µg/mL | > 100 µg/mL | > 100 µg/mL | no effect on the proliferation
3 | CCCCCCCCCCCOc1ccc([C@@H]2CC(=O)c3c(O)cc(OCCCCCCCCCCC)cc3O2)cc1 [A10, 7,4′-Di-O-undecylnaringenin] | 32 µg/mL (≈ 55.1 µM) |  | > 512 µg/mL | 256 µg/mL (≈ 441 µM) | 63 to 64 °C |  |  |  | weak |  | > 512 µg/mL |  | > 512 µg/mL | > 512 µg/mL | > 100 µg/mL | > 100 µg/mL | no effect on the proliferation
4 | CCCCCCOc1ccc([C@@H]2CC(=O)c3c(O)cc(OCCCCCC)cc3O2)cc1 [A2, 7,4′-di-O-hexylnaringenin] | 64 µg/mL (≈ 145 µM) |  | > 512 µg/mL | > 512 µg/mL |  |  | >512 (>512) µg/mL | both signals were similar to those for untreated cells | weak | neither membrane switching of phosphatidylserine nor caspase activation was observed | > 512 µg/mL |  | > 512 µg/mL | > 512 µg/mL | > 100 µg/mL | > 100 µg/mL | 
5 | CCCCCCOc1ccc([C@@H]2CC(=NO)c3c(O)cc(OCCCCCC)cc3O2)cc1 [B2, 7,4′-di-O-hexylnaringenin oxime] | > 512 µg/mL |  | > 512 µg/mL | > 512 µg/mL |  | >512 (>512) µg/mL |  | both signals were similar to those for untreated cells |  | neither membrane switching of phosphatidylserine nor caspase activation was observed | > 512 µg/mL |  | > 512 µg/mL | > 512 µg/mL | 10.1 ± 6.49 µg/mL (≈ 22.1 µM) | 49.8 ± 1.63 µg/mL (≈ 109 µM) | 

Continued, in another order:

Row | MIC [8, 14] | MIC (Escherichia coli K12 [9]) | MIC (Escherichia coli K12 [9]; [15]) | MIC [10, 16] | melting point | MIC [8] | MIC [10] | Compound | annexin V luminescence and necrosis fluorescence signals versus untreated cells (HT-29 cells [1]) | effect on colon adenocarcinoma cells (viability, MTT) (HT-29 cells [2]) | caspase 3/7 activation [3] | MBC [4] | MBC (Escherichia coli K12 [5]) | MBC (Escherichia coli K12 [5]; [13]) | MBC [6] | IC50 at 24 h (SRB assay, cytotoxicity [7]) | IC50 at 24 h (SRB assay, cytotoxicity [11]) | effect on the proliferation of the HT-29 cell line (HT-29 cells [12])
6 | 512 µg/mL (≈ 1200 µM) |  | > 512 µg/mL | > 512 µg/mL | 103 to 104 °C | 512 (>512) µg/mL | >512 (>512) µg/mL | CCCCCCCCCCCOc1cc(O)c2c(c1)O[C@H](c1ccc(O)cc1)CC2=O [A9, 7-O-Undecylnaringenin] | both signals were similar to those for untreated cells | completely inhibited | significant caspase 3/7 activation was also detected | > 512 µg/mL |  | > 512 µg/mL | > 512 µg/mL | 10.2 ± 0.2 µg/mL (≈ 23.8 µM) | 17.9 ± 0.65 µg/mL (≈ 41.8 µM) | 
7 | 32 µg/mL (≈ 68.3 µM) |  | > 512 µg/mL | > 512 µg/mL | 74 to 75 °C |  | >512 (>512) µg/mL | CCCCCCCOc1ccc([C@@H]2CC(=O)c3c(O)cc(OCCCCCCC)cc3O2)cc1 [A4, 7,4′-Di-O-heptylnaringenin] |  | weak |  | > 512 µg/mL |  | > 512 µg/mL | > 512 µg/mL | > 100 µg/mL | > 100 µg/mL | no effect on the proliferation
